Strand notation (5' to 3'): a small letter for the sugar, then the base; units joined by * are phosphorothioate-linked, units joined directly phosphodiester-linked; [ ] holds rarer units or linkages, { } end groups; capitals alone tell only the bases. e = 2'-O-(2-methoxyethyl) (MOE); [5mC] = 5-methylcytosine; d = 2'-deoxy (DNA)
How the values were obtained:
human PKK mRNA [1] = assay: Antisense inhibition of human PKK mRNA in HepaRG cells, 5,000 nM (Example 2); format: cell-based
Procedure, shortened: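 Percent inhibition of PKK mRNA is reported relative to untreated cells, after adjustment for total RNA by RIBOGREEN. Gapmers of 16–20 nucleosides with 2′-MOE wings were delivered at 5,000 nM by electroporation into HepaRG cells and left for roughly 24 hours before RNA isolation.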

human PKK mRNA [2] = assay: Dose-dependent antisense inhibition of human PKK in HepaRG cells, 0.19-5.00 uM (Example 5); format: cell-based; conditions: for percent inhibition of PKK mRNA, 0.19 μM: 0.19 μM antisense oligonucleotide; for percent inhibition of PKK mRNA, 0.56 μM: 0.56 μM antisense oligonucleotide; for percent inhibition of PKK mRNA, 1.67 μM: 1.67 μM antisense oligonucleotide; for percent inhibition of PKK mRNA, 5.00 μM: 5.00 μM antisense oligonucleotide
Method: Cells were plated at a density of 20,000 cells per well and transfected using electroporation with 0.19 μM, 0.56 μM, 1.67 μM, and 5.00 μM concentrations of antisense oligonucleotide. After a treatment period of approximately 16 hours, RNA was isolated from the cells and PKK mRNA levels were measured by quantitative real-time PCR. Human PKK primer probe set RTS3454 was used to measure mRNA levels. PKK mRNA levels were adjusted according to total RNA content, as measured by RIBOGREEN®. The antisense oligonucleotides were tested in a series of experiments that had similar culture conditions.
The half maximal inhibitory concentration (IC50) of each oligonucleotide is also presented.

[3] = human PKK mRNA, HepaRG cells, 5,000 nM antisense oligonucleotide, Table 18
[4] = Table 34, HepaRG, electroporation, ~16 h
[5] = HepaRG cells, electroporation, approximately 16 hours, Table 36
[6] = HepaRG cells, electroporation with 5,000 nM antisense oligonucleotide, approximately 24 hours, PKK mRNA by RT-PCR (RTS3454), relative to untreated control cells, Table 6 experiment
[7] = HepaRG cells, electroporation, approximately 16 hours, Table 35
[8] = 4 point dose response, HepaRG cells, Table 35
[9] = HepaRG cells, electroporation, approximately 16 hours, Table 39
[10] = HepaRG cells, electroporation, approximately 16 hours, Table 37
[11] = HepaRG cells, electroporation, approximately 16 hours, Table 40

## 548758 (antisense e[5mC]*eA*eG*eT*dA*dT*d[5mC]*dA*d[5mC]*dT*dG*dT*dA*e[5mC]*eT*eA*eG) [compound 548758]
Human PKK mRNA [1]; [3]
  % inhibition: 97%
Human PKK mRNA [2]; 0.19 0μM, HepaRG cells, electroporation, approximately 16 hours, Table 41
  percent inhibition of PKK at 0.19 0μM: 0%
Human PKK mRNA [2]; 0.56 0μM, HepaRG cells, electroporation, approximately 16 hours, Table 41
  percent inhibition of PKK at 0.56 0μM: 72%
Human PKK mRNA [2]; 1.67 1μM, HepaRG cells, electroporation, approximately 16 hours, Table 41
  percent inhibition of PKK at 1.67 1μM: 79%
Human PKK mRNA [2]; 4 point dose response, HepaRG cells, Table 41
  IC50: 600 nM
Human PKK mRNA [2]; [4]
  percent inhibition of PKK at 0.19 μM: 41%
  percent inhibition of PKK at 0.56 μM: 47%
  percent inhibition of PKK at 1.67 μM: 82%
  percent inhibition of PKK at 5.00 μM: 94%
Human PKK mRNA [2]; Table 34, PKK mRNA, HepaRG, electroporation, ~16 h
  IC50: 400 nM

## 546753 (e[5mC]*eT*eG*eG*e[5mC]*dT*d[5mC]*dA*d[5mC]*dT*dA*dT*dA*dG*dG*e[5mC]*e[5mC]*e[5mC]*e[5mC]*eA; antisense) [compound 546753]
Human PKK mRNA [1]; Table 13, human PKK mRNA in HepaRG cells, 5-10-5 gapmers
  % inhibition: 91%
Human PKK mRNA [2]; [5]
  percent inhibition of PKK at 0.19 μM: 28%
  percent inhibition of PKK at 0.56 μM: 47%
  percent inhibition of PKK at 1.67 μM: 83%
  percent inhibition of PKK at 5.00 μM: 96%
Human PKK mRNA [2]; 4 point dose response, HepaRG cells, Table 36
  IC50: 500 nM
Human PKK mRNA [2]; HepaRG cells
  percent inhibition of PKK mRNA, 0.19 μM: 17%
  percent inhibition of PKK mRNA, 0.56 μM: 31%
  percent inhibition of PKK mRNA, 1.67 μM: 70%
  percent inhibition of PKK mRNA, 5.00 μM: 91%
Human PKK mRNA [2]; HepaRG cells, 0.19-5.00 μM
  IC50: 900 nM

## 547335 (antisense eT*eT*eA*eT*eA*dA*dA*dT*dG*dT*d[5mC]*dT*d[5mC]*dG*dA*eT*eG*eG*e[5mC]*eA) [compound 547335]
Human PKK mRNA [1]; [6]
  % inhibition: 93%
Human PKK mRNA [2]; [7]
  percent inhibition of PKK at 0.19 μM: 8%
  percent inhibition of PKK at 0.56 μM: 52%
  percent inhibition of PKK at 1.67 μM: 85%
  percent inhibition of PKK at 5.00 μM: 92%
Human PKK mRNA [2]; [8]
  IC50: 700 nM
Human PKK mRNA [2]; HepaRG cells
  percent inhibition of PKK mRNA, 0.19 μM: 0%
  percent inhibition of PKK mRNA, 0.56 μM: 13%
  percent inhibition of PKK mRNA, 1.67 μM: 73%
  percent inhibition of PKK mRNA, 5.00 μM: 95%
Human PKK mRNA [2]; HepaRG cells, 0.19-5.00 μM
  IC50: 1300 nM

## 547632 (antisense eT*e[5mC]*eA*e[5mC]*eT*dG*dT*d[5mC]*d[5mC]*dT*dA*dT*dA*dT*d[5mC]*eA*e[5mC]*eT*e[5mC]*eT) [compound 547632]
Human PKK mRNA [1]; human PKK mRNA, HepaRG cells, 5-10-5 motif oligonucleotides targeting SEQ ID NO: 1 and 10
  % inhibition: 87%
Human PKK mRNA [2]; [9]
  percent inhibition of PKK at 0.19 μM: 44%
  percent inhibition of PKK at 0.56 μM: 47%
  percent inhibition of PKK at 1.67 μM: 81%
  percent inhibition of PKK at 5.00 μM: 97%
Human PKK mRNA [2]; 4 point dose response, HepaRG cells, Table 39
  IC50: 600 nM
Human PKK mRNA [2]; HepaRG cells
  percent inhibition of PKK mRNA, 0.19 μM: 0%
  percent inhibition of PKK mRNA, 0.56 μM: 0%
  percent inhibition of PKK mRNA, 1.67 μM: 63%
  percent inhibition of PKK mRNA, 5.00 μM: 91%
Human PKK mRNA [2]; HepaRG cells, 0.19-5.00 μM
  IC50: 1600 nM

## 548752 (antisense e[5mC]*eA*e[5mC]*eT*dG*dT*dA*d[5mC]*dT*dA*dG*dT*dT*dT*e[5mC]*e[5mC]*eT*eA) [compound 548752]
Human PKK mRNA [1]; [3]
  % inhibition: 89%
Human PKK mRNA [2]; [10]
  percent inhibition of PKK at 0.19 μM: 0%
  percent inhibition of PKK at 0.56 μM: 0%
  percent inhibition of PKK at 1.67 μM: 51%
  percent inhibition of PKK at 5.00 μM: 90%
Human PKK mRNA [2]; 4 point dose response, HepaRG cells, Table 37
  IC50: 1900 nM

## 547712 (antisense e[5mC]*e[5mC]*e[5mC]*e[5mC]*eA*dT*dG*dG*dT*dA*d[5mC]*d[5mC]*dA*dA*dA*eG*e[5mC]*e[5mC]*eA*eT) [compound 547712]
Human PKK mRNA [1]; HepaRG cells, 5,000 nM antisense oligonucleotide, 5-10-5 gapmers, Table 16
  % inhibition: 79%
Human PKK mRNA [2]; [11]
  percent inhibition of PKK at 0.19 μM: 0%
  percent inhibition of PKK at 0.56 μM: 5%
  percent inhibition of PKK at 1.67 μM: 21%
  percent inhibition of PKK at 5.00 μM: 62%
Human PKK mRNA [2]; 4 point dose response, HepaRG cells, Table 40
  IC50: 3800 nM

## 546208 (antisense e[5mC]*eG*eT*eT*eA*d[5mC]*dT*d[5mC]*dA*dG*d[5mC]*dA*d[5mC]*d[5mC]*dT*eT*eT*eA*eT*eA) [compound 546208]
Human PKK mRNA [1]; [6]
  % inhibition: 92%
Human PKK mRNA [2]; [7]
  percent inhibition of PKK at 0.19 μM: 16%
  percent inhibition of PKK at 0.56 μM: 45%
  percent inhibition of PKK at 1.67 μM: 79%
  percent inhibition of PKK at 5.00 μM: 91%
Human PKK mRNA [2]; [8]
  IC50: 700 nM
Human PKK mRNA [2]; HepaRG cells
  percent inhibition of PKK mRNA, 0.19 μM: 5%
  percent inhibition of PKK mRNA, 0.56 μM: 33%
  percent inhibition of PKK mRNA, 1.67 μM: 70%
  percent inhibition of PKK mRNA, 5.00 μM: 97%
Human PKK mRNA [2]; HepaRG cells, 0.19-5.00 μM
  IC50: 900 nM
